Source: patent US7534766B2, “Glucuronide metabolites and epimers thereof of tigecycline” (Wyeth, priority 2004, dated 2009)
Entries after “also recorded” stand apart in the source; their conditions may differ.

Experiments:
[1] = LC/MS detection of tigecycline metabolites in CD-1 mouse serum and urine after intravenous tigecycline
Procedure: Fifteen male CD-1 mice, with an average weight of 31.3 g at the time of dosing, were used. Animals were given food and water ad libitum. Mice in the 0.5 and 2 hour blood collection groups were housed in standard cages, while those in the 4 hour blood collection group were housed in metabolism cages for the collection of urine. Mice were dosed by the Bioresources Department at Wyeth Research, Collegeville, Pa.
For mice and rabbits, the intravenous dosing solutions was prepared by dissolving 50 mg of tigecycline in 5.0 mL of 0.9% sterile saline solution to make a working stock solution. The working stock solution was diluted with 0.9% sterile saline solution to 0.5 mg/mL for mice and 4 mg/mL for rabbits. The mouse dose (5 mg/kg, 10 mL/kg) was administered as a bolus injection via the tail vein. The rabbit dose (4 mg/kg, 1 mL/kg) was administered as a bolus injection via the marginal vein of the ear.
For mice (n=5/time point), blood (approximately 0.7 mL) was collected by cardiac puncture at 0.5, 2 and 4 hours following administration of tigecycline. For rabbits, blood (approximately 7 mL) was collected via the ear vein at 0.5, 2 and 6 hours following the tigecycline dose. Serum was separated following clot formation at room temperature and centrifugation for 15 minutes at 4° C. and 3000 rpm. The serum was transferred to a fresh tube and was stored at approximately −70° C. until analysis as described below under “Serum Sample Preparation for LC/MS Analysis. In addition, urine was collected from mice in the 4 hour blood collection group and was stored at approximately −70° C. until analysis, as described below under “Urine Sample Preparation for LC/MS Analysis.”
Mouse urine was thawed and an aliquot (1 mL) transferred to a fresh tube. The sample was centrifuged at 14,000 rpm and room temperature for 10 minutes using a Model 5415C Eppendorf centrifuge (Brinkmann Instruments, Westbury, N.Y.) to remove any particulates. The sample was then transferred to a fresh tube and was analyzed by LC/MS, as described below under “Liquid Chromatography/Mass Spectrometry Analysis.”.
Mouse and rabbit serum samples were pooled at each collection time and analyzed for tigecycline, its epimer, tigecycline glucuronide (M7 and its epimer M6), 9-aminominocycline (M3) and N-acetyl-9-aminominocycline (M9 and its epimer M8). Aliquots of serum (500 μL) were transferred to new tubes and deuterated tigecycline (30 ng/mL final concentration) was added as an internal standard (quantitative analysis only). EDTA (40 μL of 0.5 M EDTA) was added to each sample and the samples vortex mixed. Acetonitrile (500 μL) was added to each sample, samples were vortex mixed and denatured protein separated by centrifugation at 14,000 rpm and room temperature for 10 minutes using a Model 5415C Eppendorf centrifuge (Brinkmann Instruments). The supernatant was transferred to a fresh tube and the solvent evaporated under a stream of nitrogen using a Turbovap Model LV evaporator (Caliper Life Sciences, Hopkinton, Mass.).
The HPLC system used for mass spectrometric analysis was a Waters Alliance Model 2695 HPLC system (Waters Corp., Milford, Mass.). It was equipped with a built-in autosampler and a Model 996 diode array UV detector. The UV detector was set to monitor 210-400 nm. Separations for metabolite characterization were accomplished on a Phenomenex Luna C18(2) column (150×2.1 mm, 5 μm) (Phenomenex, Torrance, Calif.) equipped with a Keystone Uniguard C18 guard column (10×2.1 mm) (Thermo Electron Corp., Bellefonte, Pa.). The column temperature was 25° C. The flow rate was 0.2 mL/min. Mobile phase A was 10 mM ammonium acetate in water and mobile phase B was acetonitrile.

[2] = in vivo
Procedure: An open-label, inpatient, multiple-dose tigecycline, single-dose [^14C]tigecycline metabolic disposition and mass balance study was performed in six healthy male volunteers. The clinical protocol called for twelve subjects. Of these twelve, six received the radioactive dose (subjects 1, 4, 5, 6, 7, and 8 with subject 8 later dropping out of the study.) Eligible subjects were selected based on inclusion/exclusion criteria, medical history, physical examination and additional procedures outlined in the study protocol. Each subject received a 100 mg loading dose on the morning of Day 1, followed by a 50 mg maintenance dose every 12 hours for an additional 5 doses. On the morning of study Day 4, six subjects received a single 50 mg dose of [^14C]tigecycline (50 μCi). Each tigecycline dose was administered via a 30-minute intravenous infusion.
Serum samples were collected for metabolite profiling prior to tigecycline dosing and 1, 4, 8, 24 and 48 hours following the [^14C]-labeled dose. For metabolite profiling, urine samples were collected at 0-4, 4-8, 8-24 and 24-48 hours and fecal samples were collected up to 48 hours following the [^14C]-labeled dose. Serum and urine samples, and fecal homogenates were shipped on dry ice to the Biotransformation Division of Drug Safety and Metabolism, Wyeth Research, Collegeville, Pa. The details of the sample collection and sample storage are described in the mass balance portion of the study. The 24-48 hour urine and fecal samples for subject #6 were incomplete since the subject withdrew from the study. While samples from this subject were used for metabolite profiling, the samples were not included in the mass balance calculations.
Individual serum samples, collected 1, 4 and 8 hours following the [^14C]-labeled tigecycline dose, were analyzed for metabolite profiles. […] In order to minimize the sample volume, each serum sample was divided into two samples of equal volume (approximately 9 Ml each) and extracted and analyzed separately. […] The residue was reconstituted in 300 μL of acetonitrile/water (1:9), centrifuged for 10 minutes at 14,000 rpm and room temperature using a Model 5415C Eppendorf centrifuge (Brinkmann Instruments, Westbury, N.Y.) and assayed for radioactivity and by HPLC. Selected samples were also analyzed by LC/MS.
HPLC analyses were performed using a Waters 2695 Alliance Separation Module (Waters Corp., Milford, Mass.), a Waters Model 2487 dual wavelength UV absorbance detector, set to monitor 350 nm, and was in-line with a Gilson 215 liquid handler (Gilson, Middleton, Wis.) equipped to collect fractions at 20 second intervals. Fractions were collected into 96-well deep well Luma plates and analyzed using TopCount NXT. […]

SMILES	observed in mouse urine by LC/MS ([1]; mouse, in vivo, iv, 5 mg/kg)	percent of the radioactivity in serum ([2]; male, human)	further results
CN(C)c1cc(NC(=O)CNC(C)(C)C)c(O)c2c1C[C@H]1C[C@H]3C(N(C)C)C(O[C@@H]4O[C@H](C(=O)O)[C@@H](O)[C@H](O)[C@H]4O)=C(C(N)=O)C(=O)[C@@]3(O)C(O)=C1C2=O (stereo in doubt) [Metabolite M7, tigecycline glucuronide]	detected	–	–
CC(C)(C)NCC(=O)O [Metabolite M3a, t-butylaminoacetic acid]	–	10-20%	–
CN(C)c1cc(NC(=O)CNC(C)(C)C)c(O)c2c1C[C@H]1C[C@H]3[C@@H](N(C)C)C(O[C@@H]4O[C@H](C(=O)O)[C@@H](O)[C@H](O)[C@H]4O)=C(C(N)=O)C(=O)[C@@]3(O)C(O)=C1C2=O [Metabolite M6, epimer of tigecycline glucuronide]	detected	less than 4%	detection in serum samples [2]: approximately half the serum samples
CN(C)c1cc(NC(=O)CNC(C)(C)C)c(O)c2c1C[C@H]1C[C@H]3[C@H](N(C)C)C(O)=C(C(N)=O)C(=O)[C@@]3(O)C(O)=C1C2=O [Tigecycline]	–	–	percent of serum radioactivity after correcting for the epimer formed during the extraction ([2]; male, human): 59-80%; observed in mouse serum by LC/MS ([1]; male CD-1 mice, 5 mg/kg IV tigecycline, 0.5, 2, 4 hours, 5 mg/kg): observed; also recorded: detected; observed in mouse urine by LC/MS ([1]; male CD-1 mice, 5 mg/kg IV tigecycline, urine 0-4 hours): detected
